Publication PMC10835127, “Viruses traverse the human proteome through peptide interfaces that can be biomimetically leveraged for drug discovery” (Proceedings of the National Academy of Sciences of the …, 2024)
Read-outs that look alike come from different tables or passages of the source.

Key:
HCV replicon = format: cell-based; conditions: normalized mean of HCV replicon readout
HIV1 strain NL4-3 = format: cell-based; conditions: normalized mean of HIV1 replication readout
EBV = conditions: for EBV Norm MEAN: normalized mean of EBV replication readout
[1] = test system: F. novicida (strain U112); format: cell-based
influenza A H1N1 virus = conditions: 48 hr post-treatment, A549

Substance | HCV Norm MEAN (HCV replicon; peptide screen) | HIV1 Norm MEAN (HIV1 strain NL4-3; peptide screen) | EBV Norm MEAN (EBV; peptide screen) | Francisella novicida Norm AUC [1] | Neuraminidase activity normalized to vehicle (influenza A H1N1 virus; 200 µM peptide) | Neuraminidase activity normalized to vehicle (influenza A H1N1 virus; 0,823 µM peptide) | Neuraminidase activity normalized to vehicle (influenza A H1N1 virus; 22,2 µM peptide) | Neuraminidase activity normalized to vehicle (influenza A H1N1 virus; 2,4691 µM peptide) | Neuraminidase activity normalized to vehicle (influenza A H1N1 virus; 7,4074 µM peptide) | Neuraminidase activity normalized to vehicle (influenza A H1N1 virus; 66,6667 µM peptide) | HCV Norm MEAN (HCV replicon) | HIV1 Norm MEAN (HIV1 strain NL4-3) | enhancement of EBV signal (EBV; 20 µM peptide, Hone-1 cells, 48 h) | EBV Norm MEAN (EBV)
CPEP69: peptide of the viral peptide library; sequence page not shown (MRHIICHGGVITEE) | 0.5472 | 0.7189 | 0.4275 | 1.041 | 1,1006 | 0,9574 | 1,0597 | 1,0075 | 1,0635 | 1,1613 |  |  |  | 
GHRMAWDMMMNWSP [CPEP107] | 0.9584 | 1.4249 | 0.9961 | 0.9779 | 0,108 | 0,7424 | 0,9099 | 0,9047 | 0,8224 | 0,2891 |  |  |  | 
GPSDSGAGRAAEDRKCL [CPEP137] | 0.6634 | 0.7725 | 1.2267 | 1.181 | 1,0777 | 1,0904 | 1,189 | 0,9326 | 1,1347 | 1,0155 |  |  |  | 
CPEP71: viral library peptide from HIV1 Integrase, targets IPO7 (WKGPAKLLWKG) |  |  |  | 1.748 | 0,1137 | 0,7606 | 1,0288 | 1,0227 | 0,9266 | 0,9918 | 0.4108 | 1.077 | more than 2 fold | 2.918
CPEP136: peptide of the viral peptide library; sequence page not shown (VTNDCPNSSIVYE) | 0.4475 | 0.7957 | 1.578 | 1.265 | 0,9602 | 0,8343 | 0,8466 | 0,9183 | 0,8168 | 0,9818 |  |  |  | 
RHFPRIW [CPEP146] |  |  |  | 1.892 | 0,7481 | 0,8163 | 0,8498 | 0,7842 | 0,7775 | 0,9221 | 0.2243 | 0.9815 |  | 1.3564
IKQEDIKP [CPEP109] |  |  |  | 0.9859 | 0,7052 | 0,9055 | 0,889 | 0,8881 | 0,975 | 0,8029 | 0.2159 | 0.5534 |  | 0.5875
SEKHFRETEV [CPEP106] |  |  |  | 0.8616 | 1,1108 | 0,9396 | 1,0803 | 0,9387 | 1,0552 | 1,1055 | 1.4 | 0.4711 |  | 1.282
DDLYEEV [CPEP111] |  |  |  | 0.6875 | 0,7987 | 0,9384 | 0,8898 | 0,8026 | 0,8887 | 0,8909 | 0.2545 | 0.957 |  | 0.5736
RDVLCLRPVGAESR [CPEP94] | 0.7235 | 0.3822 | 0.9161 | 1.032 | 0,3954 | 0,7797 | 0,8926 | 0,8827 | 0,8423 | 0,695 |  |  |  | 
YASIL [CPEP21] |  |  |  | 0.5259 | 0,9829 | 0,8221 | 0,8963 | 0,8753 | 0,7869 | 1,0057 | 0.1905 | 2.264 |  | 1.459
TGERDW [CPEP119] |  |  |  | 1.661 | 0,8047 | 0,8876 | 0,8371 | 0,7125 | 0,8133 | 0,8609 | 0.3105 | 0.9503 |  | 0.6578
MNNQRKKAKNTPFNM [CPEP62] | 0.5393 | 0.3968 | 1.218 | 0.8631 | 1,2311 | 1,1108 | 0,891 | 1,0767 | 0,9136 | 1,1387 |  |  |  | 
SLQYLALAALITPKK [CPEP46] | 0.6647 | 2.169 | 0.9835 | 0.3644 | 0,1529 | 0,9309 | 0,9118 | 1,043 | 1,0188 | 0,8482 |  |  |  | 
FPESLIL [CPEP76] |  |  |  | 0.9207 | 0,7678 | 0,7594 | 0,787 | 0,7722 | 0,7943 | 0,7797 | 0.1881 | 0.9579 |  | 1.102
LHCYE [CPEP152] |  |  |  | 0.5262 | 1,0605 | 0,8889 | 0,9121 | 0,8832 | 0,8045 | 1,0197 | 0.1555 | 1.7684 |  | 1.379
